PMC10487304, “Shaping the “hot” immunogenic tumor microenvironment by nanoparticles co‐delivering oncolytic peptide and TGF‐β1 siRNA for boosting checkpoint blockade therapy” (Bioengineering & Translational Medicine, 2022)
Where a SMILES comes first, the peptide text is derived from it. [ ]: non-standard residue; d: D form. The star is where a group is joined. FITC = O=C1OC2(c3ccc(O)cc3Oc3cc(O)ccc32)c2ccc(NC(=S)*)cc21; Dip = N[C@H](C(=O)O)C(c1ccccc1)c1ccccc1

What was measured:
[1] = due to high serum protein binding ability; cited from earlier work
Excerpt: Recently, several cationic antimicrobial peptides (CAPs), such as LTX‐315, have been extensively investigated as novel anticancer agents due to their ability to kill tumor cells and create a highly proinflammatory status of the TME, mainly via causing the destabilization of tumor cell plasma and mitochondrial membrane.[12] Subsequently, the CAPs trigger the immunogenic cell death (ICD) in tumor cells via Bax/Bak‐1 and caspase apoptotic pathways, which is along with the exposure or release of tumor antigens, danger‐associated molecular pattern (DAMP) molecules such as calreticulin, ATP and high ...

[2] = Balb/c mice, FITC fluorescence (485/535 nm) in blood samples
Protocol: At indicated time points, the mice were euthanized and the blood was taken from the heart. Sodium heparin was added to the blood samples at a concentration of 15 IU/ml. The fluorescence intensity of FITC‐LTX‐315 in the serum was measured using Tecan Infinite F200 Fluorescence Microplate Reader (Tecan, Seestrasse, Männedorf, Switzerland) at an excitation and emission wavelength of 485 and 535 nm, respectively.

| SMILES | fate upon systemic administration [1] | elimination after i.v. injection [2] |
| --- | --- | --- |
| NCCCC[C@H](NC(=O)[C@@H](NC(=O)[C@H](Cc1c[nH]c2ccccc12)NC(=O)[C@H](CCCCN)NC(=O)[C@H](CCCCN)NC(=O)[C@H](Cc1c[nH]c2ccccc12)NC(=O)[C@H](Cc1c[nH]c2ccccc12)NC(=O)[C@H](CCCCN)NC(=O)[C@@H](N)CCCCN)C(c1ccccc1)c1ccccc1)C(N)=O [LTX-315] (H-KKWWKKW[Dip]K-NH2) | rapidly degraded into nontoxic metabolites | – |
| NCCCC[C@H](NC(=O)[C@@H](NC(=O)[C@H](Cc1c[nH]c2ccccc12)NC(=O)[C@H](CCCCN)NC(=O)[C@H](CCCCN)NC(=O)[C@H](Cc1c[nH]c2ccccc12)NC(=O)[C@H](Cc1c[nH]c2ccccc12)NC(=O)[C@H](CCCCN)NC(=O)[C@H](CCCCN)NC(=S)Nc1ccc2c(c1)C(=O)OC21c2ccc(O)cc2Oc2cc(O)ccc21)C(c1ccccc1)c1ccccc1)C(N)=O [FITC-LTX] ({FITC}-KKWWKKW[Dip]K-NH2) | – | eliminated within few minutes |
